For 13 molecules, TGI results are on record in PubChem BioAssay (NCI).

Each structure is given as a SMILES string.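 1) Cells in 96-well plates. 2) Compound, 48 h, 5 concentrations. 3) Linear interpolation between surrounding doses. 4) Unreached endpoint = highest concentration. TGI denotes the concentration required for complete inhibition of growth.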

Some test systems named below: NCI-H23 lung; MOLT-4 leukemia; MDA-MB-435; LOX IMVI melanoma; SNB-75 CNS; SW-620 colon; MALME-3M melanoma; 786-0 renal; SK-MEL-28 melanoma; OVCAR-3 ovarian; OVCAR-8 ovarian; UACC-257 melanoma; HT29 colon; SK-MEL-5 melanoma; SN12C renal; COLO 205 colon.
What all share (assay): inhibition of tumour cell growth, NCI panel, 48 h

Take `COc1ccc(/C(CCl)=C(\Nc2ccccc2)c2ccc(OC)c(OC)c2)cc1OC`: the TGI in the assay with NCI-H23 lung, in the assay on MOLT-4 leukemia, with MDA-MB-435, in the assay on LOX IMVI melanoma, with SNB-75 CNS and with SW-620 colon was above 100 µM each time. Further, the TGI with MALME-3M melanoma, with 786-0 renal, with SK-MEL-28 melanoma, in the assay with OVCAR-3 ovarian, in the assay with OVCAR-8 ovarian and in the assay on UACC-257 melanoma was above 100 µM throughout. Moreover, the TGI with HT29 colon, in the assay on SK-MEL-5 melanoma, with SN12C renal and with COLO 205 colon was above 100 µM each time.

Turning to `C[C@@]12c3c4ccc(C=O)c3Oc3ccc(C=O)c(c31)Oc1c(C=O)ccc(c12)O4`, the TGI in the assay on NCI-H23 lung, in the assay on MOLT-4 leukemia, with MDA-MB-435, in the assay with LOX IMVI melanoma, with SNB-75 CNS and in the assay on SW-620 colon was above 100 µM in each case. The TGI in the assay with MALME-3M melanoma, with 786-0 renal, with SK-MEL-28 melanoma, in the assay with OVCAR-3 ovarian, in the assay with OVCAR-8 ovarian and with UACC-257 melanoma was above 100 µM each time. Also, the TGI in the assay on HT29 colon, in the assay with SK-MEL-5 melanoma, with SN12C renal and in the assay with COLO 205 colon was above 100 µM throughout.

On to `CSc1c(C#N)c(O)n(-c2ccc(C)cc2)c(=O)c1C#N`, for which the TGI with NCI-H23 lung, in the assay on MOLT-4 leukemia, in the assay with MDA-MB-435, in the assay with LOX IMVI melanoma, with SNB-75 CNS and in the assay on SW-620 colon was above 100 µM throughout. In addition, the TGI in the assay with MALME-3M melanoma, with 786-0 renal, with SK-MEL-28 melanoma, in the assay with OVCAR-3 ovarian, with OVCAR-8 ovarian and with UACC-257 melanoma was above 100 µM in each case. Besides, the TGI with HT29 colon, in the assay on SK-MEL-5 melanoma, with SN12C renal and in the assay with COLO 205 colon was above 100 µM in each case.

For `C/C(=N/NC(=O)c1ccncc1)c1ccc(NC(=O)C(=O)Nn2c(=S)[nH]c3ccccc3c2=O)cc1`, the TGI in the assay with NCI-H23 lung, in the assay on MOLT-4 leukemia, with MDA-MB-435, in the assay with LOX IMVI melanoma, in the assay on SNB-75 CNS and with SW-620 colon was above 100 µM each time. Also, the TGI in the assay on MALME-3M melanoma, in the assay with 786-0 renal, with SK-MEL-28 melanoma, in the assay with OVCAR-3 ovarian, in the assay with OVCAR-8 ovarian and in the assay with UACC-257 melanoma was above 100 µM each time. Besides, the TGI in the assay with HT29 colon, with SK-MEL-5 melanoma, with SN12C renal and in the assay with COLO 205 colon was above 100 µM throughout.

Take `COC(=O)C1=C(OC(=O)/C(=C/c2ccc(Cl)cc2Cl)c2ccc(Cl)cc2Cl)C(C(=O)OC)[C@@]2(O)[C@@H](C(=O)OC)[C@H](C)C[C@@H]1[C@@H]2C(=O)OC` (stereo partly drawn): the TGI in the assay with NCI-H23 lung, with MOLT-4 leukemia, in the assay with MDA-MB-435, with LOX IMVI melanoma, with SNB-75 CNS and in the assay with SW-620 colon was above 100 µM each time. For the same molecule, the TGI in the assay with MALME-3M melanoma, with 786-0 renal, with SK-MEL-28 melanoma, in the assay on OVCAR-3 ovarian, with OVCAR-8 ovarian and in the assay with UACC-257 melanoma was above 100 µM each time. The TGI in the assay with HT29 colon, in the assay with SK-MEL-5 melanoma, in the assay with SN12C renal and in the assay on COLO 205 colon was above 100 µM each time.

As to `CC1CC(C)[C@H](O)C([C@H](O)CC2CC(=O)N(C)C(=O)C2)C1` (stereo partly drawn), the TGI with NCI-H23 lung, with MOLT-4 leukemia, in the assay on MDA-MB-435, with LOX IMVI melanoma, in the assay on SNB-75 CNS and with SW-620 colon was above 100 µM each time. The TGI with MALME-3M melanoma, in the assay with 786-0 renal, with SK-MEL-28 melanoma, in the assay on OVCAR-3 ovarian, with OVCAR-8 ovarian and in the assay with UACC-257 melanoma was above 100 µM each time. The TGI in the assay on HT29 colon, in the assay with SK-MEL-5 melanoma, with SN12C renal and in the assay on COLO 205 colon was above 100 µM in each case.

On to `O=C1CSC(/C=C/c2ccccc2)N1c1ccc(-c2ccc(-n3c(-c4ccccc4)nc4ccccc4c3=O)cc2)cc1` (stereo not drawn), for which the TGI in the assay on NCI-H23 lung was above 100 µM; with MOLT-4 leukemia it was above 100 µM; in the assay on MDA-MB-435, 49.3 µM; in the assay on LOX IMVI melanoma, 32.7 µM; with SNB-75 CNS it was 8.52 µM; in the assay with SW-620 colon, 65.1 µM. For the same molecule, the TGI in the assay on MALME-3M melanoma came to 64.4 µM; in the assay on 786-0 renal it was 29.6 µM; in the assay with SK-MEL-28 melanoma, 53.3 µM; in the assay with OVCAR-3 ovarian, 84.6 µM; in the assay with OVCAR-8 ovarian, 92.7 µM; with UACC-257 melanoma it was 93.1 µM. For the same molecule, the TGI in the assay on HT29 colon was 34 µM; in the assay with SK-MEL-5 melanoma, 27.7 µM; in the assay with SN12C renal, above 100 µM; in the assay on COLO 205 colon, 36.6 µM.

`CCOc1cc(-c2nc3ccccn3c2/N=C/c2cc([N+](=O)[O-])cc([N+](=O)[O-])c2O)ccc1O`: the TGI with NCI-H23 lung, with MOLT-4 leukemia, with MDA-MB-435, in the assay with LOX IMVI melanoma, with SNB-75 CNS and in the assay on SW-620 colon was above 100 µM each time. Further, the TGI with MALME-3M melanoma, with 786-0 renal, with SK-MEL-28 melanoma, in the assay with OVCAR-3 ovarian, in the assay on OVCAR-8 ovarian and in the assay on UACC-257 melanoma was above 100 µM in each case. Moreover, the TGI in the assay with HT29 colon, with SK-MEL-5 melanoma, with SN12C renal and in the assay with COLO 205 colon was above 100 µM throughout.

With `CCSc1c(C)c2c(n(Cc3ccc(OC)cc3)c1=O)Cc1ccccc1C2`, the TGI in the assay with NCI-H23 lung is above 100 µM; with MOLT-4 leukemia, 14.8 µM; in the assay with MDA-MB-435, above 100 µM; with LOX IMVI melanoma it was 76.2 µM; with SNB-75 CNS, above 100 µM; in the assay on SW-620 colon, 84 µM. Besides, the TGI was 45.7 µM in the assay on MALME-3M melanoma; 28.9 µM in the assay on 786-0 renal; above 100 µM in the assay on SK-MEL-28 melanoma; above 100 µM in the assay with OVCAR-3 ovarian; above 100 µM in the assay with OVCAR-8 ovarian; 44.3 µM in the assay with UACC-257 melanoma. The TGI was 72.2 µM in the assay on HT29 colon, 77.4 µM in the assay with SK-MEL-5 melanoma, 46.5 µM with SN12C renal and above 100 µM in the assay on COLO 205 colon.

Regarding `CCC(C)C(C(=O)N/N=C1/SCC(=O)N1C)C(=O)N/N=C1/SCC(=O)N1C` (stereo not drawn), the TGI in the assay with NCI-H23 lung, in the assay on MOLT-4 leukemia, with MDA-MB-435, with LOX IMVI melanoma, in the assay with SNB-75 CNS and in the assay on SW-620 colon was above 100 µM throughout. For the same molecule, the TGI in the assay with MALME-3M melanoma, in the assay with 786-0 renal, in the assay on SK-MEL-28 melanoma, in the assay with OVCAR-3 ovarian, in the assay with OVCAR-8 ovarian and with UACC-257 melanoma was above 100 µM throughout. Besides, the TGI with HT29 colon, with SK-MEL-5 melanoma, in the assay on SN12C renal and in the assay with COLO 205 colon was above 100 µM in each case.

Regarding `C[n+]1noc(/N=N\[O-])c1-c1cc(-c2c(/N=N\[O-])on[n+]2C)cc(-c2c(/N=N/[O-])on[n+]2C)c1`, the TGI with NCI-H23 lung, in the assay with MOLT-4 leukemia, in the assay with MDA-MB-435, in the assay on LOX IMVI melanoma, in the assay on SNB-75 CNS and in the assay on SW-620 colon was above 100 µM each time. For the same molecule, the TGI in the assay on MALME-3M melanoma, in the assay on 786-0 renal, in the assay on SK-MEL-28 melanoma, in the assay with OVCAR-3 ovarian, in the assay with OVCAR-8 ovarian and in the assay with UACC-257 melanoma was above 100 µM in each case. Further, the TGI in the assay with HT29 colon, in the assay on SK-MEL-5 melanoma, in the assay with SN12C renal and in the assay on COLO 205 colon was above 100 µM in each case.

Take `OC(CC(CC(O)(C(F)(F)Cl)C(F)(F)Cl)=NNc1ccccc1)(C(F)(F)Cl)C(F)(F)Cl`: the TGI in the assay on NCI-H23 lung is 7.31 µM; in the assay on MOLT-4 leukemia, above 10 µM; in the assay with MDA-MB-435, above 10 µM; in the assay with LOX IMVI melanoma, 6.91 µM; in the assay on SNB-75 CNS, 7.69 µM; in the assay with SW-620 colon, above 10 µM. The TGI in the assay on MALME-3M melanoma was 7.14 µM; in the assay on 786-0 renal, above 10 µM; in the assay with SK-MEL-28 melanoma it was 8.06 µM; in the assay with OVCAR-3 ovarian, 6.38 µM; with OVCAR-8 ovarian, above 10 µM; in the assay on UACC-257 melanoma it was 5.24 µM. In addition, the TGI with HT29 colon was above 10 µM; in the assay with SK-MEL-5 melanoma, 3.45 µM; in the assay on SN12C renal, above 10 µM; with COLO 205 colon it was 3.51 µM.

Take `Cc1cccc2[nH]c3cc(O)cc(O)c3c(=O)c12`: the TGI in the assay with NCI-H23 lung, with MOLT-4 leukemia, in the assay on MDA-MB-435, with LOX IMVI melanoma, in the assay with SNB-75 CNS and in the assay on SW-620 colon was above 10 µM throughout. Also, the TGI with MALME-3M melanoma, in the assay with 786-0 renal, with SK-MEL-28 melanoma, in the assay on OVCAR-3 ovarian, in the assay on OVCAR-8 ovarian and in the assay with UACC-257 melanoma was above 10 µM in each case. For the same molecule, the TGI in the assay with HT29 colon, with SK-MEL-5 melanoma, in the assay with SN12C renal and in the assay with COLO 205 colon was above 10 µM throughout.
